Data from patent US20150024406A1, “INCREASED AQUAPORIN EXPRESSION ON CELLULAR MEMBRANE TO IMPROVE CRYOPRESERVATION EFFICIENCY” (priority 2013, published 2015).
Like-named read-outs stand apart in the source and are kept apart here.

Legend:
rat primary hepatocytes [1] = assay: Post-thaw cell viability after cryopreservation (Live-Dead staining); format: cell-based; details: for post-thaw cell viability vs control: 20% DMSO or 20% glycerol in DMEM as CPA, one week at −80° C., 24 hours recuperation, FIG. 2 and 3; for cell survival with glycerol as the CPA compared with DMSO: treated cells, glycerol vs DMSO as cryoprotectant
Procedure: Cryopreservation of Treated and Control Samples. After treatment of cell cultures for 12 hours, samples were removed from the incubator and placed on ice to reduce the cell temperature to 4° C. to minimize the toxicity of the cryoprotecting agent (CPA). Two different CPA solutions, 20% dimethyl sulfoxide in DMEM media and 20% glycerol in DMEM media were used. The CPA solution (1 mL) was added to the samples and incubated at 4° C. for 10 minutes to reach equilibrium. Samples were transferred to the CryoMed Control Rate freezer (Thermo Forma, Waltham, Mass.).
The controlled cooling process was initiated at 4° C. and a cooling rate of 1° C./min was maintained until −16° C. followed by a cooling rate of 2° C./min until −36° C./min, and thereafter a cooling rate of 10° C./min until a temperature of −80° C. was achieved. The samples were further maintained at −80° C. for 5 minutes to ensure equilibrium. At the end of the freezing process, the samples were transferred immediately to a −80° C. Revco freezer (Kendro Laboratory, Ashville, N.C.) and stored for a week.
Evaluation of Post-thaw Cell Viability. The cryopreserved samples from the −80° C. freeze were transferred to a sterile glass box and plated in a water bath maintained at 37° C. until the media in the frozen samples completely thawed. At this juncture, the samples were between 5-10° C. Immediately, the CPA containing media in the samples was aspirated to prevent any toxicity to the cells. DMEM (1 mL) was added to the samples and incubated at 37° C. for 10 minutes. After 10 minutes of incubation, the media in the samples was again refreshed in order to remove any remaining traces of CPA. These samples were then placed in the incubator at 37° C., 5% CO2 for 24 hours and allowed to recuperate from the freeze-thaw process.
After 24 hours of recuperation time, cell viability of the samples was determined by using nuclei fluorescence dyes. The samples were washed with 1× PBS solution and incubated with Hoechst Dye (1 μg/mL) and Ethidium Homodimer (2 μM)(Molecular Probes, Eugene, Oreg.) in PBS for 30 minutes. The viability solution was aspirated, and samples were fixed by adding 10% formalin (1 mL) (VWR, West Chester, Pa.) and incubating for 20 minutes. Subsequently, the cell viability was examined with a confocal microscope with DAPI (excitation 358 nm; emission 461 nm) and Texas red (excitation 596 nm; emission 620 nm) filters. The fluorescent images obtained were then analyzed using MetaMorp Imaging System.

AQP8 [2] = assay: Confocal immunofluorescence of AQP8 localization in cultured hepatocytes; format: cell-based, rat; details: hepatocytes treated 12 hours; 100 μM Bt2cAMP or 1 μM glucagon; vs control
Procedure: Confocal immunofluorescence. For confocal immunofluorescence experiments, collagen coated chamber slides were used instead of the tissue culture plates. Hepatocytes (5×10^5) were plated on the collagen-coated chamber slides, and incubated at 37° C. for 4 hours. The cells were then treated with a) Bt2cAMP, b) glucagon and c) normal DMEM media (control) and incubated for 12 hours. After the 12 hours, the cells were fixed with 2% formaldehyde for 10 minutes at room temperature and permeabilized with 0.2% Triton X-100 for 2 minutes. The cells were then treated with a blocking solution containing 3% BSA at room temperature and incubated overnight at 4° C. with goat affinity-purified AQP8 antibody (Santa Cruz Biotechnology Inc., Santa Cruz, Calif.) of dilution 1:50 in PBS. Then, the chamber slides were rinsed with PBS solution and treated with Alexa Flour 488—conjugated donkey anti-goat […] secondary antibody (Invitrogen, Calif.) for 1 hour. The dilution of the secondary antibody used was 1:400 in PBS. Then the cells were treated with 1 μg/mL concentration of Hoechst 33342 (Molecular Probes, Eugene, Oreg.) and mounted with Pro- Long (Molecular Probes, Eugene, Oreg.). Fluorescence localization of the AQP8 was then detected by immersion oil confocal microscopy with 100× magnification lens.

rat primary hepatocytes [3] = assay: Cell shrinkage analysis in hypertonic NaCl solution; format: cell-based; details: 5M NaCl, 20 minutes; 12 hours treatment; HgCl2 0.1 mM for 5 min; vs control cells; FIG. 1
Procedure: Cell shrinkage analysis. Cell shrinkage analysis was performed on treated and control samples prepared on tissue culture plates as described above. One culture plate at a time was transferred to an Olympus IX70 microscope (Olympus America Inc, Pa.) mounted with a computer interfaced camera (Hamamatsu Corporation, Bridgewater, N.J.). The media from culture plate was aspirated and 1 mL of 5M NaCl solution was added. Response of the cells to the hypertonic NaCl solution was captured at 40× magnification at one minute intervals for 20 minutes. Images were processed using software MetaMorph Imaging System (Molecular Devices, Sunnyvale, Calif.). Using MetaMorp, the variations of the cross-sectional area of the cells at various sites were measured over time to analyze the shrinkage behavior of the cells in the hypertonic solution.

AQP8 [4] = details: cited from earlier work

Compound	post-thaw cell viability by CPA used (rat primary hepatocytes [1]; glycerol as CPA compared to DMSO)	AQP8 labeling at the cellular membrane (AQP8 [2])	cross-sectional area of cells over time (shrinkage) in hypertonic environment (rat primary hepatocytes [3])	post-thaw cell viability vs control (rat primary hepatocytes [1])	post-thaw cell viability of Bt2cAMP-treated vs glucagon-treated samples (rat primary hepatocytes [1]; 12 hrs treatment, most of the culture samples)	cell survival with glycerol as the CPA compared with DMSO (rat primary hepatocytes [1])	increase in the quantity of AQP8 on cellular membrane (AQP8 [4]; treatment of hepatocytes for 16 hours) [%]	increase in the quantity of AQP8 on cellular membrane (AQP8 [4]; treatment of hepatocytes for 36 hours) [%]
OCC(O)CO [glycerol]	significantly higher post-thaw cell viability compared to DMSO							
CCCC(=O)Nc1ncnc2c1ncn2[C@@H]1O[C@@H]2COP(=O)(O)O[C@H]2[C@H]1OC(=O)CCC [Bt2cAMP, sodium (3aR,4R,6R,6aR)-4-(6-butanamido-9H-purin-9-yl)-6-[(butanoyloxy)methyl]-2-oxo-tetrahydro-2H-1,3,5,2λ^5-furo[3,4-d][1,3,2] dioxaphosphol-2-olate]		higher density of AQP8 labeling at the cellular membrane	significant decrease in their cross-sectional area over time	significantly higher than the control	higher cell viability compared to the ones treated with glucagon	significant increase in the cell survival		
[Cl][Hg][Cl] [HgCl2]			no significant shrinkage behavior	significantly lower cell viability				
glucagon		higher density of AQP8 labeling at the cellular membrane	significant decrease in their cross-sectional area over time	significantly higher than the control		significant increase in the cell survival	80	120
